From patent publication US6579851B2, “Effects of glucagon-like peptide-1 (7-36) on antro-pyloro-duodenal motility” (Amylin Pharmaceuticals, Inc., priority 2000, dated 2003)
Where two headings read alike, the source gives them in different places.

How the values were obtained:
[1] = for GLP-1 (plasma immunoreactivity, AUC over basal): 60 min period, mean ± SEM
Experimental: Plasma glucose concentrations were measured using a glucose analyzer by the glucose oxidase method (YSI 1500 G; Schlag, Bergisch-Gladbach, Germany), with a coefficient of variation of <2%. Plasma insulin was measured by the Abbott Imx Microparticle Enzyme Immunoassay, with an average intraassay coefficient of variation of 5%. Plasma immunoreactivities of C-peptide, glucagon, and pancreatic polypeptide (PP) were analyzed by commercially available radioimmunoassay kits (Biermann, Bad Nauheim, Germany and Euradiagnostica, The Netherlands [PP]). […] The detection limit of the assay was 0.25 pmol/l. […] Intra- and inter-assay coefficients of variation were 3.4 and 10.4%, respectively. All values were expressed as mean±SEM. Plasma and motility parameters were separately analyzed for each 60 min period. Pyloric tone was calculated as change from basal, the latter being determined as mean pyloric tone during the total basal period before starting the experiments. Differences of plasma hormones and glucose compared to the basal state were calculated as integrated values over basal (area under the response curve; AUC). Basal levels of plasma parameters were determined as the mean of the two basal values just before the start of each experiment. All samples were first tested for normality by the Kolmogoroff-Smirnoff test. Differences between experimental sets for each parameter were analysed by two-way repeated measures analysis of variance employing intravenous infusion and duodenal perfusion as factors. When this analysis indicated differences, a Student-Newman-Keuls multicomparison test was performed. Differences were considered significant at P<0.05.
(§1) Eleven healthy male volunteers, 23 to 28 years old and within 10% of ideal body weight, participated in the studies. None of them were taking medication, or suffering from gastrointestinal symptoms or systemic disease.
(§2) All studies were performed after an overnight fast. Two experiments were performed, separated by at least 1 week on subjects lying in a semirecumbent position. An indwelling catheter was inserted into an antecubital vein for intravenous infusions. A second catheter was inserted into a dorsal vein of the contralateral hand in a retrograde fashion for sampling of arterialized blood (Schirra et al. Proc Assoc Am Physicians 109, 84-97 (1997)).
(§3) On the interdigestive study day, 0.154 M saline was continuously perfused into the region of the lower duodenal flexure at a rate of 2.5 ml/min. […] On the postprandial study day, the same intravenous infusions were administered with an intraduodenal lipid perfusion at 2.5 kcal/min (2.5 ml/min, Lipofundin MCT 10%, Braun Co., Melsungen, Germany). This lipid preparation consisted of 50% medium-chain triglycerides (MCT) and 50% long-chain triglycerides (LCT, soya bean oil).
Throughout the experiment, blood samples were taken immediately before the start of intravenous infusion, as well as in 10-min intervals thereafter. Blood was collected in ice-chilled EDTA tubes containing 1000 aprotinin (kallikrein inhibitory units/ml blood) and was centrifuged immediately. The plasma was stored at −20° C. until assayed.

[2] = during the experiments of the application
Experimental: as §1, §2, §3

For `CC[C@H](C)[C@H](NC(=O)[C@H](Cc1ccccc1)NC(=O)[C@H](CCC(=O)O)NC(=O)[C@H](CCCCN)NC(=O)[C@H](C)NC(=O)[C@H](C)NC(=O)[C@H](CCC(N)=O)NC(=O)CNC(=O)[C@H](CCC(=O)O)NC(=O)[C@H](CC(C)C)NC(=O)[C@H](Cc1ccc(O)cc1)NC(=O)[C@H](CO)NC(=O)[C@H](CO)NC(=O)[C@@H](NC(=O)[C@H](CC(=O)O)NC(=O)[C@H](CO)NC(=O)[C@@H](NC(=O)[C@H](Cc1ccccc1)NC(=O)[C@@H](NC(=O)CNC(=O)[C@H](CCC(=O)O)NC(=O)[C@H](C)NC(=O)[C@@H](N)Cc1c[nH]cn1)[C@@H](C)O)[C@@H](C)O)C(C)C)C(=O)N[C@@H](C)C(=O)N[C@@H](Cc1c[nH]c2ccccc12)C(=O)N[C@@H](CC(C)C)C(=O)N[C@H](C(=O)N[C@@H](CCCCN)C(=O)NCC(=O)N[C@@H](CCCNC(=N)N)C(N)=O)C(C)C` [GLP-1, glucagon-like peptide-1(7-36)amide], the “GLP-1 (plasma immunoreactivity, AUC over basal)” value ([1]; intraduodenal lipid 2.5 kcal/min, GLP-1 iv. high dose 1.2 pmol·kg−1·min−1) was 75.2 ± 3.9*‡∥ pmol/l · 60 min, the “GLP-1 (plasma immunoreactivity, AUC over basal)” value ([1]; intraduodenal lipid 2.5 kcal/min, GLP-1 iv. low dose 0.4 pmol·kg−1·min−1) was 33.8 ± 2.9*∥ pmol/l · 60 min and the “GLP-1 (plasma immunoreactivity, AUC over basal)” value ([1]; intraduodenal saline, GLP-1 iv. high dose 1.2 pmol·kg−1·min−1) was 67.4 ± 4.0 pmol/l · 60 min. The “GLP-1 (plasma immunoreactivity, AUC over basal)” value ([1]; intraduodenal saline, GLP-1 iv. low dose 0.4 pmol·kg−1·min−1) was 25.2 ± 2.6 pmol/l · 60 min, the “Time to constant plasma levels after start of infusion” value ([1]; iv. infusion, duodenal saline and lipid) was at most 20 min and the “Hypoglycemia and other side effects” value [2] was “did not cause hypoglycemia”.
